Data reported in patent US8697888B2, “Substituted (1-(methylsulfonyl)azetidin-3-yl)(heterocycloalkyl)methanone analogs as antagonists of muscarinic acetylcholine M1 receptors” (Vanderbilt University, priority 2012, dated 2014).
pIC50: −log10 of the molar value. Read-outs that look alike come from different tables or passages of the source.

Target: T1, mAChR M1 (UniProt P11229)
T1 sequence (P11229 1-460): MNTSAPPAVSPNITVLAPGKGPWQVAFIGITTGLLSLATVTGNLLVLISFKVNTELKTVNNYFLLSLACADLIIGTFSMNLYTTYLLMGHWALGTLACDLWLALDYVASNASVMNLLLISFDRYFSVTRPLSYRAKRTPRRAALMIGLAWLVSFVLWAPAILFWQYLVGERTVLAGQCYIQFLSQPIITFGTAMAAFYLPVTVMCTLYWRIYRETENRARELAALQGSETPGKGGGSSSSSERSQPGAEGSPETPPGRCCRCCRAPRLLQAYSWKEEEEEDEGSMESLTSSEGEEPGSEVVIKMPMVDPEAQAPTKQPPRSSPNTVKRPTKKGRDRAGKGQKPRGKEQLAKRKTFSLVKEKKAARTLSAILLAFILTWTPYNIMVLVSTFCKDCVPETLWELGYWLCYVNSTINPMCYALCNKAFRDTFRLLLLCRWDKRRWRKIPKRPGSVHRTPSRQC
Assay: mAChR M1 cell-based functional assay (calcium mobilization, antagonist mode)
Source text: Chinese hamster ovary (CHO-K1) cells stably expressing rat (r)M1 were purchased from the American Type Culture Collection and cultured according to their indicated protocol. CHO cells stably expressing human (h)M2, hM3, and hM5 were described previously (Levey, et al., 1991); hM1 and hM4 cDNAs were purchased from Missouri S&T cDNA Resource; rM4 cDNA was provided by T. I. Bonner (National Institutes of Health, Bethesda, Md.). rM2 and rM3 were cloned from a rat brain cDNA library and sequence verified. hM1, rM2, rM3, hM4, and rM4 cDNAs were used to stably transfect CHO-K1 cells purchased from the American Type Culture Collection using Lipofectamine-2000. To make stable rM2, hM2, rM3, hM4, and rM4 cell lines for use in calcium mobilization assays, these cells also were stably transfected with a chimeric G-protein (Gqi5) (provided by B. R. Conklin, University of California, San Francisco) using Lipofectamine 2000. rM1, hM1, rM3, hM3, rM5, and hM5 cells were grown in Ham's F-12 medium containing 10% heat-inactivated fetal bovine serum (FBS), 20 mM HEPES, and 50 μg/mL G418 sulfate. rM2-Gqi5, hM2-Gqi5, and hM4-Gqi5 cells were grown in the same medium also containing 500 μg/mL Hygromycin B. Stable rM4-Gqi5 cells were grown in DMEM containing 10% heat-inactivated FBS, 20 mM HEPES, 400 μg/mL G418 sulfate, and […].
For high throughput measurement of antagonist inhibited increases in intracellular calcium, CHO-K1 cells stably expressing muscarinic receptors were plated in growth medium lacking G418 and hygromycin at 15,000 cells/20 μL/well in Greiner 384-well black-walled, tissue culture (TC)-treated, clear-bottom plates (VWR). Cells were incubated overnight at 37° C. and 5% CO2. The next day, cells were washed using an ELX 405 (BioTek) with four washes (80 μL) of assay buffer then aspirated to 20 μL. Next, 20 μL of 16 μM Fluo-4/acetoxymethyl ester (Invitrogen, Carlsbad, Calif.) prepared as a 2.3 mM stock in DMSO and mixed in a 1:1 ratio with 10% (w/v) Pluronic F-127 and diluted in assay buffer was added to the wells and the cell plates were incubated for 50 min at 37° C. and 5% CO2. Dye was removed by washing with the ELX 405 (four 80 μL washes of assay buffer) then aspirated to 20 μL. Compound master plates were formatted in an 11 point CRC format (1:3 dilutions) in 100% DMSO with a starting concentration of 10 mM using the BRAVO liquid handler (Agilent). Test compound CRCs were then transferred to daughter plates (240 nL) using the Echo acoustic plate reformatter (Labcyte, Sunnyvale, Calif.) and then diluted into assay buffer (40 μL) to a 2× stock using a Thermo Fisher Combi (Thermo Fisher Scientific, Waltham, Mass.).
Calcium flux was measured using the Functional Drug Screening System (FDSS) 6000 (Hamamatsu Corporation, Tokyo, Japan) as an increase in the fluorescent static ratio. Compounds were applied to cells (20 μL, 2×) using the automated system of the FDSS 6000 at 4 s into the 300 s protocol and the data were collected at 1 Hz. At 144 s into the 300 s protocol, 10 μL of an EC20 concentration of the muscarinic receptor agonist acetylcholine was added (5×), followed by the addition of 12 μL an EC80 concentration of acetylcholine at the 230 s time point (5×). Agonist activity was analyzed as a concentration-dependent increase in calcium mobilization upon compound addition. Positive allosteric modulator activity was analyzed as a concentration-dependent increase in the EC20 acetylcholine response. Antagonist activity was analyzed as a concentration-dependent decrease in the EC80 acetylcholine response. Concentration-response curves were generated using a four-parameter logistical equation in XLfit curve fitting software (IDBS, Bridgewater, N.J.) for Excel (Microsoft, Redmond, Wash.) or Prism (GraphPad Software, Inc., San Diego, Calif.).
The calcium mobilization assay was used to determine “potency”.

[1] = dash = baseline or about zero remaining activity (table footnote)
[2] = activity remaining at top dose of 30 μM test compound, as percentage of the response to an approx. EC80 concentration of ACh
[3] = concentration of antagonist decreasing calcium flux by 50%; EC80 acetylcholine response; CHO-K1 cells expressing mAChR M1; read-out: Potency (IC50)

Row | Remaining Activity (%) [2] | pIC50 [3] | Compound | Remaining Activity (%) [1] | pIC50 (read-out: Potency (IC50); concentration of antagonist decreasing calcium flux by 50%; EC80 acetylcholine response; CHO-K1 cells expressing mAChR M1)
1 |  |  | O=C(C1CN(S(=O)(=O)c2cccc3ncccc23)C1)N1CCN(c2ccncc2)CC1 [B26] | — (Unless otherwise indicated with a numerical value, the percent remaining activity is baseline or about zero, i.e. as indicated by “—”) | 
2 | ≧80% | < 5.00 | Cn1ccc(-c2ccccc2S(=O)(=O)N2CC(C(=O)N3CCN(c4ccncc4)CC3)C2)n1 [B64] |  | 
3 |  | 6.07 | O=C(C1CN(S(=O)(=O)c2cccnc2Cl)C1)N1CCN(c2ccncc2)CC1 [B21] | — (Unless otherwise indicated with a numerical value, the percent remaining activity is baseline or about zero, i.e. as indicated by “—”) | 
4 | ≧80% | < 5.00 | CN1CCOc2cc(S(=O)(=O)N3CC(C(=O)N4CCN(c5ccncc5)CC4)C3)cnc21 [B73] |  | 
5 |  | 5.82 | O=C(C1CN(S(=O)(=O)c2cccc(F)c2)C1)N1CCN(c2ccncc2)CC1 [B23] | — (Unless otherwise indicated with a numerical value, the percent remaining activity is baseline or about zero, i.e. as indicated by “—”) | 
6 | 59% | < 5.00 | CC(C)S(=O)(=O)N1CC(C(=O)N2CCN(c3ccncc3)CC2)C1 [B44] |  | 
7 | ≧80% | < 5.00 | O=C(C1CN(S(=O)(=O)c2ccc(N3CCOCC3)nc2)C1)N1CCN(c2ccncc2)CC1 [B74] |  | 
8 |  | 6.11 | O=C(C1CN(S(=O)(=O)c2cccc3cnc(Cl)cc23)C1)N1CCN(c2ccncc2)CC1 [B19] | — (Unless otherwise indicated with a numerical value, the percent remaining activity is baseline or about zero, i.e. as indicated by “—”) | 
9 |  | 6.02 | O=C(C1CN(S(=O)(=O)c2ccc3c(c2)OCO3)C1)N1CC2CN(c3ccncc3)CC2C1 (centres unmarked) [B57] | — (Unless otherwise indicated with a numerical value, the percent remaining activity is baseline or about zero, i.e. as indicated by “—”) | 
10 | ≧80% | < 5.00 | O=C(C1CN(S(=O)(=O)c2ccncc2)C1)N1CCN(c2ccncc2)CC1 [B67] |  | 
11 |  | 6.03 | O=C(C1CN(S(=O)(=O)c2cccnc2Cl)C1)N1CC2CN(c3ccncc3)CC2C1 (centres unmarked) [B54] | — (Unless otherwise indicated with a numerical value, the percent remaining activity is baseline or about zero, i.e. as indicated by “—”) | 
12 | ≧80% | < 5.00 | Cn1cc(S(=O)(=O)N2CC(C(=O)N3CC4CN(c5ccncc5)CC4C3)C2)cn1 (centres unmarked) [B83] |  | 
13 | 41% | < 5.00 | Cc1ccnc(S(=O)(=O)N2CC(C(=O)N3CCN(c4ccncc4)CC3)C2)c1 [B40] |  | 
14 | 48% | < 5.00 | O=C(C1CN(S(=O)(=O)c2cnc3ccccc3c2)C1)N1CCN(c2ccncc2)CC1 [B39] |  | 
15 | 27% | < 5.00 | O=C(C1CN(S(=O)(=O)c2cccc3c2OCCO3)C1)N1CCN(c2ccncc2)CC1 [B45] |  | 
16 |  | 5.72 | Cc1noc(C)c1S(=O)(=O)N1CC(C(=O)N2CCN(c3ccncc3)CC2)C1 [B25] | — (Unless otherwise indicated with a numerical value, the percent remaining activity is baseline or about zero, i.e. as indicated by “—”) | 
17 | ≧80% | < 5.00 | O=C(C1CN(S(=O)(=O)c2ccc3ccccc3c2)C1)N1CCN(c2ccncc2)CC1 [B77] |  | 

Row | Compound | Remaining Activity (%) [2] | pIC50 [3] | Remaining Activity (%) [1] | pIC50 (read-out: Potency (IC50); concentration of antagonist decreasing calcium flux by 50%; EC80 acetylcholine response; CHO-K1 cells expressing mAChR M1)
18 | CC(C)(C)CS(=O)(=O)N1CC(C(=O)N2CC3CN(c4ccncc4)CC3C2)C1 (centres unmarked) [B55] | 56% |  |  | < 5.00
